Measurements as given in ChEMBL document CHEMBL1201862, “PubChem BioAssay data set” (2004).
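A five-concentration, 48-hour dose response in 96-well plates underlies each endpoint, interpolated linearly between surrounding concentrations. At the GI50, growth is halved.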 Active and inactive are the calls of the source. Cut-off read from the data, not from the text of the source: active = GI50 up to about 1.1 µM and inactive = higher.

Key:
Test in all cases: NCI anticancer screen, dose series, 48 h
SK-MEL-2 = tested on: SK-MEL-2
RPMI-8226 = tested on: RPMI-8226
UACC-62 = tested on: UACC-62
EKVX = tested on: EKVX
SNB-19 = tested on: SNB-19
KM12 = tested on: KM12
IGROV-1 = tested on: IGROV-1
OVCAR-3 = tested on: OVCAR-3
UO-31 = tested on: UO-31
OVCAR-5 = tested on: OVCAR-5
NCI-H23 = tested on: NCI-H23
TK-10 = tested on: TK-10
ACHN = tested on: ACHN
COLO 205 = tested on: COLO 205
M14 = tested on: M14

Measured: GI50

CC1COC(C)(C)P(=O)(c2ccccc2)C1 (configuration not stated)
inactive: SK-MEL-2 > 100 µM | RPMI-8226 > 100 µM | UACC-62 > 100 µM | EKVX > 100 µM | SNB-19 > 100 µM | KM12 > 100 µM | IGROV-1 > 100 µM | OVCAR-3 > 100 µM | UO-31 > 100 µM | OVCAR-5 > 100 µM | NCI-H23 > 100 µM | TK-10 > 100 µM | ACHN > 100 µM | COLO 205 > 100 µM | M14 > 100 µM

CC(=O)OCc1c2ccccc2c(C)c2c1cc(F)c1ccccc12
inactive: SK-MEL-2 15.2 µM | UACC-62 20.7 µM | EKVX 34.4 µM | SNB-19 28.9 µM | KM12 > 100 µM | IGROV-1 22.5 µM | OVCAR-3 22.9 µM | UO-31 38 µM | OVCAR-5 42.7 µM | NCI-H23 23.1 µM | TK-10 > 100 µM | ACHN 17.5 µM | COLO 205 16.2 µM | M14 34 µM

C=C(c1ccccc1)[C@@]1(O)CCCC[C@H]1NC(c1ccccc1)c1ccccc1
inactive: SK-MEL-2 13.3 µM | RPMI-8226 3.94 µM | UACC-62 13.1 µM | EKVX 15.3 µM | SNB-19 15.7 µM | KM12 11.1 µM | IGROV-1 16.2 µM | OVCAR-3 12.1 µM | UO-31 14.5 µM | OVCAR-5 13.6 µM | NCI-H23 8.3 µM | TK-10 16.3 µM | ACHN 11.7 µM | COLO 205 14.2 µM | M14 14 µM

COc1ccc2c(c1)[n+]([O-])c(C(=O)CC(=O)C(=O)Nc1cccc(C)c1C)c(C)[n+]2[O-]
inactive: SK-MEL-2 > 100 µM | RPMI-8226 > 100 µM | UACC-62 > 100 µM | EKVX > 100 µM | SNB-19 > 100 µM | KM12 > 100 µM | IGROV-1 > 100 µM | OVCAR-3 > 100 µM | UO-31 > 100 µM | OVCAR-5 > 100 µM | NCI-H23 > 100 µM | TK-10 > 100 µM | ACHN > 100 µM | M14 > 100 µM

CC(=O)N1CCN(c2ccc(OCC3COC(Cn4ccnc4)(c4ccc(Cl)cc4Cl)O3)cc2)CC1 (configuration not stated) [KETOCONAZOLE]
inactive: SK-MEL-2 17.4 µM | RPMI-8226 35.9 µM | UACC-62 15.4 µM | KM12 30.6 µM | IGROV-1 38.7 µM | OVCAR-3 28.1 µM | UO-31 25.8 µM | OVCAR-5 30.3 µM | TK-10 37.8 µM | ACHN 36.2 µM | COLO 205 20.1 µM | M14 22.4 µM

Cc1ccc(/C=N\NC2c3cc(Cl)ccc3Nc3nc(O)nc(C)c32)cc1 (configuration not stated)
inactive: SK-MEL-2 > 100 µM | RPMI-8226 45 µM | UACC-62 > 100 µM | EKVX > 100 µM | SNB-19 > 100 µM | KM12 > 100 µM | IGROV-1 84.3 µM | OVCAR-3 > 100 µM | UO-31 > 100 µM | NCI-H23 > 100 µM | TK-10 > 100 µM | ACHN > 100 µM | COLO 205 58.1 µM | M14 57.1 µM

Nc1ccc(C(=O)NN2C(=O)C(Cl)C2c2ccc(O)cc2)cc1 (configuration not stated)
inactive: SK-MEL-2 15.3 µM | RPMI-8226 49.1 µM | UACC-62 14.9 µM | EKVX 16.6 µM | SNB-19 16 µM | KM12 21.8 µM | IGROV-1 17.8 µM | OVCAR-3 15 µM | UO-31 23.3 µM | OVCAR-5 21.7 µM | NCI-H23 17.9 µM | TK-10 44.3 µM | ACHN 35.2 µM | COLO 205 18.8 µM | M14 17.5 µM

C[C@]12CC[C@H](O)CC1=CC[C@@H]1C2CC[C@]2(C)C(=O)NC(=O)CC12 (some centres not stated)
inactive: SK-MEL-2 64.7 µM | RPMI-8226 23 µM | UACC-62 > 100 µM | EKVX > 100 µM | SNB-19 > 100 µM | KM12 35.5 µM | IGROV-1 96.8 µM | OVCAR-3 > 100 µM | UO-31 > 100 µM | OVCAR-5 > 100 µM | NCI-H23 > 100 µM | TK-10 > 100 µM | ACHN > 100 µM | COLO 205 36.8 µM | M14 > 100 µM

COc1ccc(Cn2c(C)nc3c2C(=O)c2ccccc2C3=O)cc1
inactive: SK-MEL-2 13.2 µM | UACC-62 4.58 µM | EKVX 13.8 µM | SNB-19 22.3 µM | KM12 5.31 µM | IGROV-1 9.86 µM | OVCAR-3 9.84 µM | UO-31 10.5 µM | NCI-H23 7 µM | TK-10 11 µM | ACHN 10.3 µM | COLO 205 9.02 µM | M14 11.6 µM

Cc1ccc(S(=O)OC23CC4CC(CC(C4)C2)C3)cc1 (configuration not stated)
inactive: RPMI-8226 41.4 µM | UACC-62 > 100 µM | EKVX > 100 µM | SNB-19 > 100 µM | KM12 > 100 µM | IGROV-1 29.4 µM | OVCAR-3 > 100 µM | UO-31 41.2 µM | OVCAR-5 > 100 µM | NCI-H23 > 100 µM | TK-10 > 100 µM | ACHN > 100 µM | COLO 205 > 100 µM | M14 > 100 µM

CC(=O)C(CN(C(C)C)C(C)C)C(c1ccccc1)c1c(O)c2ccccc2oc1=O (configuration not stated)
inactive: SK-MEL-2 > 100 µM | RPMI-8226 > 100 µM | UACC-62 > 100 µM | EKVX > 100 µM | SNB-19 > 100 µM | KM12 > 100 µM | IGROV-1 > 100 µM | OVCAR-3 > 100 µM | UO-31 > 100 µM | OVCAR-5 > 100 µM | NCI-H23 > 100 µM | TK-10 > 100 µM | ACHN > 100 µM | COLO 205 > 100 µM | M14 > 100 µM

COC(=O)C1=C(c2cc(OC)c(OC)c(OC)c2)OC(c2cc(OC)c(OC)c(OC)c2)C1 (configuration not stated)
inactive: RPMI-8226 23.1 µM | UACC-62 12.8 µM | SNB-19 19.5 µM | KM12 17.7 µM | IGROV-1 20.1 µM | OVCAR-3 22.1 µM | UO-31 12.3 µM | OVCAR-5 33.3 µM | NCI-H23 19.5 µM | TK-10 25 µM | ACHN 20.2 µM | COLO 205 16.4 µM | M14 20.5 µM

COc1cc(/C=C2\[C@@H]3NC(Cc4c(OC)c(C)c(OC)c(OC)c43)C(=O)N2Cc2ccccc2)c(OC)c(C)c1OC
inactive: SK-MEL-2 19.9 µM | RPMI-8226 29.8 µM | UACC-62 47.5 µM | EKVX 29.4 µM | SNB-19 80.5 µM | KM12 56.1 µM | IGROV-1 34.1 µM | OVCAR-3 31.7 µM | UO-31 27 µM | OVCAR-5 41.3 µM | NCI-H23 49.7 µM | TK-10 40.6 µM | ACHN 44 µM | COLO 205 15 µM | M14 31.3 µM

CC(=O)CC(=O)Nc1ccc(OS(N)(=O)=O)cc1
inactive: SK-MEL-2 > 100 µM | RPMI-8226 > 100 µM | UACC-62 > 100 µM | EKVX > 100 µM | SNB-19 > 100 µM | KM12 > 100 µM | IGROV-1 > 100 µM | OVCAR-3 > 100 µM | UO-31 > 100 µM | OVCAR-5 > 100 µM | NCI-H23 > 100 µM | TK-10 > 100 µM | ACHN > 100 µM | COLO 205 > 100 µM | M14 > 100 µM

CC1(C)C=C(N2CCN(C3=CC(C)(C)NC(C)(C)C3)CC2)CC(C)(C)N1
inactive: RPMI-8226 > 100 µM | UACC-62 > 100 µM | EKVX > 100 µM | SNB-19 > 100 µM | KM12 > 100 µM | IGROV-1 > 100 µM | OVCAR-3 > 100 µM | UO-31 > 100 µM | OVCAR-5 > 100 µM | NCI-H23 > 100 µM | TK-10 > 100 µM | ACHN > 100 µM | M14 > 100 µM

CCOC(=O)/C(=C\c1ccc(OCc2ccccc2)c(OC)c1)C(=O)c1ccccc1
inactive: SK-MEL-2 19.6 µM | RPMI-8226 27.6 µM | UACC-62 23.3 µM | EKVX 27.4 µM | SNB-19 27.7 µM | KM12 19.5 µM | IGROV-1 29.7 µM | OVCAR-3 22 µM | UO-31 18.1 µM | OVCAR-5 20.7 µM | NCI-H23 19.3 µM | TK-10 27.5 µM | ACHN 18.1 µM | COLO 205 30.8 µM | M14 15 µM

[O-][Cl+3]([O-])([O-])O.c1ccc(/N=c2\nc(N3CCOCC3)ss2)cc1
inactive: SK-MEL-2 17.9 µM | UACC-62 13.8 µM | EKVX 21 µM | SNB-19 30.5 µM | KM12 17.2 µM | IGROV-1 20.1 µM | UO-31 28.6 µM | OVCAR-5 28.9 µM | NCI-H23 29.5 µM | TK-10 46.5 µM | ACHN 16.5 µM | M14 14.7 µM

CC(=S)NNC(=O)c1ccncc1
inactive: SK-MEL-2 > 100 µM | UACC-62 > 100 µM | EKVX > 100 µM | SNB-19 > 100 µM | KM12 > 100 µM | IGROV-1 > 100 µM | OVCAR-3 > 100 µM | UO-31 > 100 µM | OVCAR-5 > 100 µM | NCI-H23 > 100 µM | TK-10 > 100 µM | ACHN > 100 µM | COLO 205 > 100 µM | M14 > 100 µM

Cc1ccc(N2C(=O)/C(=C3\Sc4c(nc(C)n(C)c4=O)N3c3ccccc3)SC2=S)cc1
inactive: SK-MEL-2 > 100 µM | RPMI-8226 > 100 µM | UACC-62 45.7 µM | EKVX > 100 µM | SNB-19 49.4 µM | KM12 > 100 µM | IGROV-1 48 µM | UO-31 > 100 µM | OVCAR-5 > 100 µM | NCI-H23 > 100 µM | TK-10 32.8 µM | ACHN > 100 µM | COLO 205 > 100 µM | M14 > 100 µM
